One assay deals with IDO1 (Homo sapiens, UniProt P14902). Put plainly: IDO1 Enzymatic Assay (A). The assay is classed as biochemical. The settings on record: recombinant HIS-tagged IDO1, 40 nM; read-out: IDO enzymatic IC50, nM (A). The protocol: Compounds to be tested were serially diluted in ten 3-fold steps in DMSO starting from 10 mM DMSO stocks. Compound dilutions or DMSO alone were then dispensed from the dilution plate into a Greiner black 384-well assay plate (catalog #781086) using an Echo 555 acoustic liquid handler (Labcyte). HIS-tagged IDO1 protein (Genbank #: NM_002164) was recombinantly expressed in Escherichia coli using ZYP5052 auto induction media supplemented with 500 μM delta aminolevulinic acid for 48 h at 16° C. IDO1 protein was purified using Ni^2+-affinity resin and size exclusion chromatography. Purified protein was then diluted in assay buffer (50 mM Tris pH 7.0, 1% glycerol, 20 μM methylene blue, 0.05% Tween-20, 20 mM sodium ascorbate, 100 units/mL catalase) to obtain a final IDO1 concentration of 40 nM. […] were dispensed to wells of the assay plate using a BioRAPTR liquid dispenser (Beckman Coulter). Assay plates containing compound and IDO1 enzyme were incubated at RT for 30 min. Afterwards, 10 μL of 400 μM tryptophan in assay buffer were added to each well of the assay plate using a BioRAPTR liquid dispenser. […] The resulting fluoresence was measured in an Envision plate reader (Perkin Elmer) with a 400/25 nm excitation filter and an 510/20 nm emission filter. […] Potencies were calculated by linear least squares fit to the four parameter logistic IC50 equation.
Sequence of IDO1 (P14902 whole entry): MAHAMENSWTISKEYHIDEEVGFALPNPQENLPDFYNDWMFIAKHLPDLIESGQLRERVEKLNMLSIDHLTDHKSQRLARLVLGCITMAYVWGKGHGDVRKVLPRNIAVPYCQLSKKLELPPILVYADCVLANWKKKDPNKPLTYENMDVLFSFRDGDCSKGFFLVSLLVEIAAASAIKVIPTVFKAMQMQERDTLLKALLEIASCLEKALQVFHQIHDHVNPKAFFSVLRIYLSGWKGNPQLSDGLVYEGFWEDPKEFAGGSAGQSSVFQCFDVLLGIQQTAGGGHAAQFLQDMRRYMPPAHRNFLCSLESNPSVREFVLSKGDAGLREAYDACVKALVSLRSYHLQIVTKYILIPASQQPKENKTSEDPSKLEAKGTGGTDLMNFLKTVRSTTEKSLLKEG

The next assay concerns the target T1, TDO (Homo sapiens, UniProt P48775).
T1 construct: endogenous in cells; host or cells: SW48 cells
Put plainly: TDO Cellular Assay (C), SW48 cells. The assay is classed as cell-based. Particulars: 48 hours, second value of cell. As for the experimental part:
Compounds were serially diluted in DMSO and acoustically dispensed (LabCyte Echo) into each well of a black 384-well cell culture plate (Greiner). SW48 cells were diluted to a density of 2×10^5 cells/ml in complete RPMI culture medium supplemented with […] L-tryptophan and […] SW48 cells were dispensed to each well of 384-well plates with a compound. Plates are gently shaken and then incubated for 48 hours at 37° C. in an incubator with 5% CO2. After incubation, 12 μl of the detection agent (0.5 M isonipecotate in DMSO) was added to each well and incubated at 37° C. overnight. The fluorescent signal was read on a Spectramax plate reader with excitation at 400 nm and emission at 510 nm. The percent inhibition was determined by normalization to wells containing no compound relative to wells receiving no cells.

Another assay has as its target CLK2 (Homo sapiens, UniProt P49760). Put plainly: Off-target kinase panel, ZLYTE: CLK2. The assay is classed as biochemical. The settings on record: read-out: Estimated IC50 (uM) CLK2. From the text:
(§1) The activity data was obtained in a panel of 265 and 264 for compounds 1-1 and CC-1, respectively, using the ZLYTE and ADAPTA assay methods indicated in the table below.
(§2) The ZLYTE biochemical assay employs a fluorescence-based, coupled-enzyme format and is based on the differential sensitivity of phosphorylated and non-phosphorylated peptides to proteolytic cleavage. The peptide substrate is labeled with two fluorophores—one at each end—that make up a Fluorescence Resonance Energy Transfer (FRET) pair.
(§3) In the primary reaction, the kinase transfers the gamma-phosphate of ATP to a single tyrosine, serine or threonine residue in a synthetic FRET-peptide. In the secondary reaction, a site-specific protease recognizes and cleaves non-phosphorylated FRET-peptides. Phosphorylation of FRET-peptides suppresses cleavage by the Development Reagent. […] A ratiometric method, which calculates the ratio (the Emission Ratio) of donor emission to acceptor emission after excitation of the donor fluorophore at 400 nm, is used to quantitate reaction progress, as shown in the equation below. […]
(§4) Both cleaved and uncleaved FRET-peptides contribute to the fluorescence signals and therefore to the Emission Ratio. The extent of phosphorylation of the FRET-peptide can be calculated from the Emission Ratio. […]
(§5) 10. Read on fluorescence plate reader and analyze the data.

A further assay deals with MELK (Homo sapiens, UniProt Q14680). Nature of the assay: Off-target kinase panel, ZLYTE: MELK. The settings on record: read-out: Estimated IC50 (uM) MELK. The assay is classed as biochemical.
Sequence of MELK (Q14680 whole entry): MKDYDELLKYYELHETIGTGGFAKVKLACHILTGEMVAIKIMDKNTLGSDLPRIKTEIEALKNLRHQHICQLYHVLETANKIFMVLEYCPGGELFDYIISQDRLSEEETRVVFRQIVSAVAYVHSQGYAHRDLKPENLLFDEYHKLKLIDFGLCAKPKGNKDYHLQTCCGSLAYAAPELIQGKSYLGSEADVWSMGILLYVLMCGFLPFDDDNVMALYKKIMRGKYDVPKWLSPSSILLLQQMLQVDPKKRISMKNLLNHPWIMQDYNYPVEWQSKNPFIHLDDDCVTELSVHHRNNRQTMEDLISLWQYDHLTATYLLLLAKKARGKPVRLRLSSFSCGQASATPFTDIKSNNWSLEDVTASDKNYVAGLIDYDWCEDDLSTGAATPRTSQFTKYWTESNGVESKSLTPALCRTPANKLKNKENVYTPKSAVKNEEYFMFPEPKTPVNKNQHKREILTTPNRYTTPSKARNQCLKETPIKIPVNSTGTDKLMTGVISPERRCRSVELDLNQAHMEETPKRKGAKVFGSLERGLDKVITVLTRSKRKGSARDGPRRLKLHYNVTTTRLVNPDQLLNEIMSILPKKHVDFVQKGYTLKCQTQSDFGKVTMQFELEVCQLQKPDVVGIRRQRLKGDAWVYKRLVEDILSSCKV
Text: as §1, §2, §3, §4, §5

Another assay concerns the target CDK2 (Homo sapiens, UniProt P24941). Nature of the assay: Off-target kinase panel, ZLYTE: CDK2. The assay is classed as biochemical. Particulars: read-out: Estimated IC50 (uM) CDK2.
Text: as §1, §2, §3, §4, §5

A further assay has as its target CDK5/P35 (Homo sapiens, UniProt Q00535). Nature of the assay: Off-target kinase panel, ZLYTE: CDK5/P35. The assay is classed as biochemical. Particulars: read-out: Estimated IC50 (uM) CDK5/P35.
Text: as §1, §2, §3, §4, §5

For another assay, the target named is TYK2 (Homo sapiens, UniProt P29597). Nature of the assay: Off-target kinase panel, ZLYTE: TYK2. The assay is classed as biochemical. The settings on record: read-out: Estimated IC50 (uM) TYK2.
Sequence of TYK2 (P29597 whole entry): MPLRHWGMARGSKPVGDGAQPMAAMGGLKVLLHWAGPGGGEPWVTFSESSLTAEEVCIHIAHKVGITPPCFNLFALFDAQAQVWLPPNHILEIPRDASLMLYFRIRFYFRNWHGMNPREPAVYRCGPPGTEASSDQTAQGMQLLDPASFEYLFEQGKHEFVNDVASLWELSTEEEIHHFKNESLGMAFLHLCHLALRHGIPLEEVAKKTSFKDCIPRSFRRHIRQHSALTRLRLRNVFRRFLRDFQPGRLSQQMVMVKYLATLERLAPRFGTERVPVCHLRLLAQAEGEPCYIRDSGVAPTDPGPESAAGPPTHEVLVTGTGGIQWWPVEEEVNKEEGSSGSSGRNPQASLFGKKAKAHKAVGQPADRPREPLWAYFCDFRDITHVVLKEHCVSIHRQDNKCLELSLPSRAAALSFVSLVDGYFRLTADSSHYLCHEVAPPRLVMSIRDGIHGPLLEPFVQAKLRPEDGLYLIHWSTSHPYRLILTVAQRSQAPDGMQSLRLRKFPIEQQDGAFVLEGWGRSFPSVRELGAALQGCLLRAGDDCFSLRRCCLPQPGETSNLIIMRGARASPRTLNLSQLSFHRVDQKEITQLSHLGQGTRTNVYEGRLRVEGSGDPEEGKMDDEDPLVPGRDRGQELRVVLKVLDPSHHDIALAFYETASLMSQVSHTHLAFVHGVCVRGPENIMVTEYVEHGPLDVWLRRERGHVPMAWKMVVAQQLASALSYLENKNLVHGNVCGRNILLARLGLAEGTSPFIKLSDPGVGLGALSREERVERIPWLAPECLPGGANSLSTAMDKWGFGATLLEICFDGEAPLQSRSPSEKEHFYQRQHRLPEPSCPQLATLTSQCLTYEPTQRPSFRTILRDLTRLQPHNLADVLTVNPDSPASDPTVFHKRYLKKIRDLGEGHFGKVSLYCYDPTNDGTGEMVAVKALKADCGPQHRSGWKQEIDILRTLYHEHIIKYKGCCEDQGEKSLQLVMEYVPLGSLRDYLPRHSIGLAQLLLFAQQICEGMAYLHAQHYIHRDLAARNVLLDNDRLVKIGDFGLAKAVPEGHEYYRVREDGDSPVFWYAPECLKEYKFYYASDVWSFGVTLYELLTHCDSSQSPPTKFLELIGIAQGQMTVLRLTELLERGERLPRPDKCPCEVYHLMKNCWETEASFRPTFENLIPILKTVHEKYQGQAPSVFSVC
Text: as §1, §2, §3, §4, §5

T1 sequence (P48775 whole entry): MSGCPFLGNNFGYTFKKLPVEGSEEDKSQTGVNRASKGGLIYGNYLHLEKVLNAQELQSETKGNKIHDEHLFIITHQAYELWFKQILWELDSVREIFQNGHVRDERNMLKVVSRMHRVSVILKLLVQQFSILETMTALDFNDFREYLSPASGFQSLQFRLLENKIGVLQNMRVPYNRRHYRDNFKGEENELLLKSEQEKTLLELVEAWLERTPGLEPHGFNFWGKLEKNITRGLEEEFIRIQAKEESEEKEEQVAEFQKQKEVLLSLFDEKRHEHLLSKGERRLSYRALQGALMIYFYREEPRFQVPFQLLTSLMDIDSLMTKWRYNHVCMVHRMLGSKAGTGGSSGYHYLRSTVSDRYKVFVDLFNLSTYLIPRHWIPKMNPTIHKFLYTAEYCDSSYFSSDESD
Sequence of CDK5/P35 (Q00535 whole entry): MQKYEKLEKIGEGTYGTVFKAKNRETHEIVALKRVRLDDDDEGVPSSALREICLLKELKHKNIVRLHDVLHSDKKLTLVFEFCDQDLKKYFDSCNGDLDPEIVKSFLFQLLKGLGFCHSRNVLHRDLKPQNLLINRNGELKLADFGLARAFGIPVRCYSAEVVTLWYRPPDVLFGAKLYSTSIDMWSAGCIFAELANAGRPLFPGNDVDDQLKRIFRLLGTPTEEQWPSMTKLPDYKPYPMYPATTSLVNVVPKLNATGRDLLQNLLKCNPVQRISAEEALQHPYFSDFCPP
Sequence of CDK5/P35 (Q15078 2-307 partner limits assumed): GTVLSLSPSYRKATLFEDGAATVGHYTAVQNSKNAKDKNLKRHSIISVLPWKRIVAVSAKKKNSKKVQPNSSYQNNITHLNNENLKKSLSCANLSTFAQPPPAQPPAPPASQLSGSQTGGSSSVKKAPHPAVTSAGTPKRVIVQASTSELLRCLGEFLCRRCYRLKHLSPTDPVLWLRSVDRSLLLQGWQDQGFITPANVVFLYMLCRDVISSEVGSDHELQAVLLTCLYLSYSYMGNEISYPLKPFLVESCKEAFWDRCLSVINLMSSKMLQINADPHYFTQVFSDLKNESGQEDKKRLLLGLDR
Sequence of CLK2 (P49760 whole entry): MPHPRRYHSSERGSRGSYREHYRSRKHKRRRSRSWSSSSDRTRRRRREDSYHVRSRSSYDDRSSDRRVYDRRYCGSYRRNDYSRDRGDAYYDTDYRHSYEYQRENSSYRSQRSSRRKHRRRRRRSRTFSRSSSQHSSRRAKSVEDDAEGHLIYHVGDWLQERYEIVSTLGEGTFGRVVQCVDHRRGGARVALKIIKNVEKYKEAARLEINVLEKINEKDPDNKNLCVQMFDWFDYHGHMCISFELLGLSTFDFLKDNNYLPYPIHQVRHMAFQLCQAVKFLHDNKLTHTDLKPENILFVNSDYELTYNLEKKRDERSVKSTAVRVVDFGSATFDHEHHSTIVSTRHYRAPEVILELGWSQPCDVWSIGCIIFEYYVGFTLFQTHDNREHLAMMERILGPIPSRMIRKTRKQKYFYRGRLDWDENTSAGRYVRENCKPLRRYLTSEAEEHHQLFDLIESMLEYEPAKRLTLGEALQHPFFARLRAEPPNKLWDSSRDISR

Regarding `C[C@@H]1CN(c2cc(Br)cc3[nH]ncc23)CC[C@]12NC(=O)NC2=O` (single isomer, unassigned) [Compound 1-1], the IC50 at IDO1 is 129 nM; against TDO, 247 nM; on CLK2, 0.73 µM; at MELK it was over 2 µM; at CDK2, over 2 µM; at CDK5/P35, over 2 µM. On TYK2, the IC50 was over 2 µM.

Consider `O=C1NC(=O)C2(CCN(c3cc(Cl)cc4[nH]ncc34)CC2)N1` [CC-1], for which the IC50 is 113 nM on IDO1; 206 nM against TDO; 0.35 µM on CLK2; 1.4 µM at MELK; 1.5 µM at CDK2; 1.6 µM on CDK5/P35. Further, the IC50 on TYK2 is 2 µM.

Source of the values: patent US20220396577A1, “NOVEL SUBSTITUTED 1,3-8-TRIAZASPIRO[4,5] DECANE-2,4-DIONE COMPOUNDS AS INDOLEAMINE 2,3-DIOXYGENASE (IDO) AND/OR TRYPTOPHAN 2,3-DIOXYGENASE (TDO) INHIBITORS” (Merck Sharp & Dohme LLC, priority 2019, published 2022).
